Laboratory results from patent US6117840A, “CS-1 peptidomimetics, compositions and methods of using the same” (Cytel Corporation, priority 1997, dated 2000).
Peptide text beside a SMILES is read from it.

Tested on: Jurkat T cell line
Experiment: Binding of Jurkat cells to frozen human RA synovial sections
Format: cell-based
Settings: 10-mer at 500 μg/ml; inhibitor peptide at its IC50
Protocol: Binding studies were carried out using the Jurkat T cell line and frozen RA synovial sections. […] Stimulated MOLT-4 cells behaved similarly.

## CC[C@H](C)[C@H](NC(=O)[C@H](CCC(=O)O)NC(=O)[C@@H]1CCCN1C(=O)CN)C(=O)N[C@@H](CC(C)C)C(=O)N[C@@H](CC(=O)O)C(=O)N[C@H](C(=O)N1CCC[C@H]1C(=O)N[C@@H](CO)C(=O)N[C@H](C(=O)O)[C@@H](C)O)C(C)C [G P E I L D V P S T free amine free acid, GPEILDVPST] (H-GPEILDVPST-OH)
  inhibition of Jurkat cell adhesion to RA synovial sections: could be inhibited
